{"source": "patent US20250049733A1", "about": "“PHARMACEUTICAL COMPOSITION FOR THE TREATMENT OF INFECTIOUS RESPIRATORY DISEASES CAUSED BY INFLUENZA AND SARS-COV-2, AMONG OTHERS” (ALPARIS, S.A. DE C.V., priority 2021, published 2025)", "origin": "cited, not measured here", "key": {"[1]": {"system": "Respiratory Syncytal Virus (RSV)"}, "[2]": {"conditions": "in vivo"}, "rheumatoid arthritis": {"system": "rheumatoid arthritis", "conditions": "8 weeks of treatment with 1 g of curcumin daily; meta-analysis"}, "[3]": {"system": "tumor necrosis factor-alpha (TNF-α) and interleukin-6 (IL-6)", "conditions": "randomized controlled trials"}}, "data": [{"smiles": "COc1cc(/C=C/C(=O)CC(=O)/C=C/c2ccc(O)c(OC)c2)ccc1O", "note": "[curcumin, (1E,6E)-1,7-bis(4-hydroxy-3-methoxyphenyl)-1,6-heptadiene-3,5-dione]", "values": [{"measurement": "IC50, antiviral action against influenza", "setting": "influenza", "result": 0.17, "unit": "mg/L"}, {"measurement": "IC50, antiviral action against SARS-CoV2", "setting": "SARS-CoV2 viruses", "result": 7.9, "unit": "mg/L"}, {"measurement": "IC50, antiviral action against Respiratory Syncytal Virus (RSV)", "setting": "[1]", "result": 10, "unit": "mg/L"}, {"measurement": "IC50, antiviral action against Herpes simplex virus", "setting": "Herpes simplex virus", "result": 11.05, "unit": "mg/L"}, {"measurement": "half-life", "setting": "[2]", "result": "about 8 hours"}, {"measurement": "symptoms associated with inflammation in rheumatoid arthritis", "setting": "rheumatoid arthritis", "result": "can reduce symptoms associated with inflammation"}, {"measurement": "IC50, antiviral action against Hepatitis", "setting": "Hepatitis", "result": 1.68, "unit": "mg/L"}, {"measurement": "secretion of TNF-α and IL-6", "setting": "[3]", "result": "significantly reduces"}]}]}
